Assay results: EPA's ToxValDB 9.5 (doi:10.2903/j.efsa.2010.1653)

Tests used:
Apis mellifera = details: acute; duration: 48 hours; oral; unspecified; mortality
Bibionidae = details: chronic/long-term; duration: 28 days; development
Canidae = details: chronic; duration: 1 years; oral; Dog Other; body weight
Coturnix japonica = details: acute; oral; mortality
Daphnia magna = details: chronic/long-term; duration: 21 days; reproduction
Oryctolagus sp. = details: developmental; development
Tagia sp. = details: acute; duration: 14 days; mortality
Typhlodromus pyri [1] = details: chronic/long-term; duration: 14 days; reproduction
Typhlodromus pyri [2] = test: LR50; higher = less toxic; details: acute; duration: 7 days; mortality
[3] = reproduction developmental, reproduction

With `Cc1cc(=O)[nH]o1` [Hymexazol] the LD50 (Apis mellifera) was > 100 µg/piece, the NOEC (Bibionidae) was 1.6 mg/L and the NOAEL (Canidae) was 17 mg/kg-day. The LC50 (Colinus virginianus; acute, oral, diet, mortality) was > 1470 mg/kg-day, the NOEC (Colinus virginianus; [3]) was 86.5 mg/kg-day and the LD50 (Coturnix japonica) was > 1080 mg/kg. The NOEC (Daphnia magna) was 0.8 mg/L, the LC50 (Oncorhynchus mykiss; acute, duration: 96 hours, mortality) was > 100 µg/mL and the NOEC (Oncorhynchus mykiss; chronic/long-term, duration: 28 days, body weight) was > 100 mg/L. For the same compound, the NOAEL (Oryctolagus sp.) was 50 mg/kg-day, the LD50 (Rattus norvegicus; acute, oral, mortality) was 1390 mg/kg and the NOEL (Rattus norvegicus; [3]) was 37 mg/kg-day. It also gave an LC50 (Tagia sp.) of 282 mg/kg, an NOEC (Typhlodromus pyri [1]) of 400 g/ha and an LR50 (Typhlodromus pyri [2]) of 1110 g/ha.
